8 compounds from patent publication US20160355530A1, “HEPATITIS C INHIBITORS AND USES THEREOF” (AbbVie Inc., priority 2010, published 2016) can be followed below.

Read-outs that look alike come from different tables or passages of the source. Some results are limits rather than exact numbers.

Experiment [1] deals with chimeric replicon with 2a-J6CF-derived NS5B. The experiment can be described thus: microbe, parasite or virus in culture. Conditions: Hepatitis C virus, read-out: 2a chimera 5% FBS EC50. It counts as cell-based, HCV genotype 2a.
Experiment [2] deals with HCV NS5B polymerase 1a-H77-C316Y. The experiment can be described thus: biochemical. On the set-up: species or system HCV genotype 1a. The settings on record: ratio of enzyme IC50s, 1a H77-C316Y / 1a H77. An outline of the steps:
(§1)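 Recombinant NS5B (residues 1–570, His-tagged, E. coli-expressed) copied 5 nM of a 2.1 kb HCV 1b negative-strand 3′-end RNA template with 20 μM CTP, 20 μM ATP and 0.284 μM [3H]UTP for 3 h at 30 °C. Spermine-precipitated RNA was filter-captured and counted, and IC50 was fitted by nonlinear regression.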

The target of experiment [3] is T1, HCV NS5B polymerase 1a-H77-C316Y (Hepatitis C virus genotype 1a, UniProt P27958, C2736Y).
T1 construct: six-histidine tag; made in house; host or cells: E. coli
T1 sequence (P27958 2421-2990 C2736Y): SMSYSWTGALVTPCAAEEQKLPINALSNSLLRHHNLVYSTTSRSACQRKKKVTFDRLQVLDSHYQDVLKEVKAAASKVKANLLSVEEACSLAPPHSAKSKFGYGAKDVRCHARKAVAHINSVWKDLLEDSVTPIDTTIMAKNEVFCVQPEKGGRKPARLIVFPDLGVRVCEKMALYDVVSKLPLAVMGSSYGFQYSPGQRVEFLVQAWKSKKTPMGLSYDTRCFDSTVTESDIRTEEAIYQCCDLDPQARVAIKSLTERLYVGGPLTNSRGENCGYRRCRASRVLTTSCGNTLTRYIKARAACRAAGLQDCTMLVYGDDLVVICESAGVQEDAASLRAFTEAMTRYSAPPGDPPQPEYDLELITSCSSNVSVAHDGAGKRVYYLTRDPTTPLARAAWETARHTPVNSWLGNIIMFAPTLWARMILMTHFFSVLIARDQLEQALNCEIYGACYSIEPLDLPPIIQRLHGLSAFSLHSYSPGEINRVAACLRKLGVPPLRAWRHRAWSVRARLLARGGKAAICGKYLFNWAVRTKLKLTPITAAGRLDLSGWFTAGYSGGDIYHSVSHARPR
The experiment can be described thus: biochemical. On the set-up: species or system HCV genotype 1a. In short, it runs like this:
as §1

In experiment [4] the target is T2, HCV NS5B polymerase 1a-H77 (Hepatitis C virus genotype 1a, UniProt P27958).
T2 construct: six-histidine tag; made in house; host or cells: E. coli
T2 sequence (P27958 2421-2990): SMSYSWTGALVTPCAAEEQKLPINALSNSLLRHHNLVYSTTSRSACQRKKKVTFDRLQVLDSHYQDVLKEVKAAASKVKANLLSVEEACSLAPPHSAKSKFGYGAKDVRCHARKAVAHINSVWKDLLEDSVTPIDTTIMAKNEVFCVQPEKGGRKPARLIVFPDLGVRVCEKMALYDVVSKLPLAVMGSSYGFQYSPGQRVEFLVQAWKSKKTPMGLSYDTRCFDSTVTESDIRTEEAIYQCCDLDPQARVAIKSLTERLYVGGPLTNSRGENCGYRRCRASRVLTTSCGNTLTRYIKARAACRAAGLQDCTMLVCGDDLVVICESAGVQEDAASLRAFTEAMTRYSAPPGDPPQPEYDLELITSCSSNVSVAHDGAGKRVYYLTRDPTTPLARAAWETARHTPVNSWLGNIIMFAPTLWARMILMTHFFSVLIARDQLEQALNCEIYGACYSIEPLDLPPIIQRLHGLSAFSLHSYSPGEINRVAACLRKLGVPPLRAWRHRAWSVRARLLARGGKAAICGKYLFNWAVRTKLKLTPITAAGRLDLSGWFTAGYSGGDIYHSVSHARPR
The experiment can be described thus: biochemical. On the set-up: species or system HCV genotype 1a. Conditions: enzyme, strain 1a H77; read-out: HCV Polymerase Strain 1a H77 IC50. In short, it runs like this: as §1

Experiment [5] relates to chimeric replicon with genotype 2b NS5B. The experiment can be described thus: microbe, parasite or virus in culture. The settings on record: Hepatitis C virus, read-out: 2b chimera 5% FBS EC50. It is filed as cell-based, HCV genotype 2b.
In experiment [6] the test system is chimeric replicon with genotype 4a NS5B. The experiment can be described thus: microbe, parasite or virus in culture. It is filed as cell-based, HCV genotype 4a. Conditions: Hepatitis C virus, read-out: 4a chimera 5% FBS EC50.
Experiment [7] relates to HCV 1b-BB7 subgenomic replicon. The experiment can be described thus: microbe, parasite or virus in culture. It counts as cell-based, HCV genotype 1b. Conditions: Hepatitis C virus, stable replicon. (In general: A replicon is a self-replicating genome or part of one, used to study replication in cells.)
Experiment [8] concerns HCV 1a-H77 subgenomic replicon. The experiment can be described thus: microbe, parasite or virus in culture. It is filed as cell-based, HCV genotype 1a. Conditions: Hepatitis C virus, stable replicon.
Experiment [9] has as its system chimeric replicon with genotype 3a NS5B. The experiment can be described thus: microbe, parasite or virus in culture. It counts as cell-based, HCV genotype 3a. The settings on record: Hepatitis C virus, read-out: 3a chimera 5% FBS EC50.
Experiment [10] has as its target T3, HCV NS5B polymerase 1b BK strain (Hepatitis C virus genotype 1b, UniProt P26663).
T3 construct: six-histidine tag; made in house; host or cells: E. coli
The experiment can be described thus: HCV NS5B polymerase enzymatic inhibition assay, strain 1b BK. It is filed as biochemical. The settings on record: enzyme, strain 1b BK; read-out: HCV Polymerase Strain 1b BK IC50. In short, it runs like this:
as §1

[11] abbreviates: strain 1b BB7, 5% FBS + 40% human plasma, read-out: 1b BB7 5% FBS + 40% Human Plasma EC50.
The mark [12] stands for this setting: strain 1b BB7, 5% FBS, no human plasma, read-out: 1b BB7 5% FBS EC50.
Setting [13] is: strain 1b BB7, 5% FBS, read-out: 1b BB7 5% FBS EC50.
Where [14] appears, read: 5% FBS, absence of human plasma, read-out: Stable Replicon 1a H77 5% FBS EC50.
The mark [15] stands for this setting: strain 1a H77, 5% FBS + 40% human plasma, read-out: 1a H77 5% FBS + 40% Human Plasma EC50.
[16] abbreviates: strain 1a H77, 5% FBS, no human plasma, read-out: 1a H77 5% FBS EC50.
[17] abbreviates: strain 1a H77, 5% FBS, read-out: 1a H77 5% FBS EC50.

T3 sequence (P26663 2420-2989): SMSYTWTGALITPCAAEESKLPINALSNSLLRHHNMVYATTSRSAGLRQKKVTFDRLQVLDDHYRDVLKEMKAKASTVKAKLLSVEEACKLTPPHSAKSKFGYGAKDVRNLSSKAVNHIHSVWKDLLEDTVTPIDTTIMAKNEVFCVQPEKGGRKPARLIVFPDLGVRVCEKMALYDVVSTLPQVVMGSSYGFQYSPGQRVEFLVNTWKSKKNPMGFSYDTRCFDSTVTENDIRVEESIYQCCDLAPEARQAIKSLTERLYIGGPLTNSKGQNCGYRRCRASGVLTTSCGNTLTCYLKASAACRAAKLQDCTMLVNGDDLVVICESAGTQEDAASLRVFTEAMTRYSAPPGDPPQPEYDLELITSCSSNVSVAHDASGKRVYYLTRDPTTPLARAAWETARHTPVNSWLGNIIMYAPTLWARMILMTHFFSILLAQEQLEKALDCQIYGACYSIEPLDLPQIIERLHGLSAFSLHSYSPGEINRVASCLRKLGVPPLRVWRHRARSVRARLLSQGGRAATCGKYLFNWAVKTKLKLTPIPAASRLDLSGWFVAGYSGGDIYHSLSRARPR

One may read the EC50 as the concentration at which the effect is half-maximal. As a reminder, the IC50 is the concentration at which inhibition is half-maximal. Take `CN(C)CCCN(c1cc2oc(-c3ccc(F)cc3)c(C3=NOCCN3)c2cc1C1CC1)S(C)(=O)=O` [Example 127, N-[5-cyclopropyl-3-(5,6-dihydro-4H-1,2,4-oxadiazin-3-yl)-2-(4-fluorophenyl)-1-benzofuran-6-yl]-N-[3-(dimethylamino)propyl]methanesulfonamide]: the 50% effective concentration (EC50) is 344 nM in experiment [1]; 309 nM in experiment [5]; 814 nM in experiment [6]; 90 nM in [7] (setting [11]); 21 nM in [7] (setting [12]); 21 nM in [7] (setting [13]). Further, the EC50 is 64.8 nM in experiment [8] (setting [14]); 123 nM in experiment [8] (setting [15]); 64.8 nM in experiment [8] (setting [16]); 64.8 nM in experiment [8] (setting [17]); 57 nM in experiment [9]. In addition, in experiment [2], the “C316Y/1a Fold Resistance” value is on record as 26 fold. Also, the values for the IC50 in [3], in experiment [4] and in experiment [10] were 663 nM, 25.4 nM and 302 nM, respectively.
On to `CS(=O)(=O)N(Cc1cnc(Br)s1)c1cc2oc(-c3ccc(F)cc3)c(-c3ncc[nH]3)c2cc1C1CC1` [Example 67, N-[(2-bromo-1,3-thiazol-5-yl)methyl]-N-[5-cyclopropyl-2-(4-fluorophenyl)-3-(1H-imidazol-2-yl)-1-benzofuran-6-yl]methanesulfonamide], for which the EC50 in [1] was 87.3 nM; in experiment [5] it was 77.2 nM; in experiment [6] it was 232 nM; in experiment [7] (setting [11]), 256 nM; in experiment [7] (setting [12]), 13.9 nM; in experiment [7] (setting [13]) it was 13.9 nM. Besides, the EC50 in [8] (setting [14]) came to 54.3 nM; in [8] (setting [15]) it was 1010 nM; in [8] (setting [16]), 54.3 nM; in experiment [8] (setting [17]), 54.3 nM; in [9], 7.9 nM. In [2], the “C316Y/1a Fold Resistance” value turned out to be 68 fold. Also, the half-inhibitory concentration (IC50) in experiment [3] amounted to 234 nM; in experiment [4], 3.5 nM; in [10] it was 12 nM.
With `CS(=O)(=O)N(CC1CC1(F)F)c1cc2oc(-c3ccc(F)cc3)c(-c3ncc[nH]3)c2cc1C1CC1` (stereo not drawn) [Example 55, N-[5-cyclopropyl-2-(4-fluorophenyl)-3-(1H-imidazol-2-yl)-1-benzofuran-6-yl]-N-[(2,2-difluorocyclopropyl)methyl]methanesulfonamide], the EC50 in experiment [1] turned out to be 184 nM; in experiment [5], 348 nM; in experiment [6], 557 nM; in experiment [7] (setting [11]), 363 nM; in [7] (setting [12]), 37 nM; in experiment [7] (setting [13]) it was 37 nM. Further, the concentration for a half-maximal effect (EC50) amounted to 68 nM in [8] (setting [14]); 1020 nM in experiment [8] (setting [15]); 68 nM in experiment [8] (setting [16]); 68 nM in experiment [8] (setting [17]); 18 nM in [9]. For the same compound, in [2], the “C316Y/1a Fold Resistance” value is listed as 73 fold. Moreover, the IC50 in experiment [3] worked out at 366 nM; in experiment [4], 5 nM; in [10] it was 28 nM.
Take `CCS(=O)(=O)CCN(c1cc2oc(-c3ccc(F)cc3)c(C3=NOCCN3)c2cc1C1CC1)S(C)(=O)=O` [Example 142, N-[5-cyclopropyl-3-(5,6-dihydro-4H-1,2,4-oxadiazin-3-yl)-2-(4-fluorophenyl)-1-benzofuran-6-yl]-N-[2-(ethylsulfonyl)ethyl]methanesulfonamide]: the EC50 in experiment [1] is 193 nM; in [5] it was 368 nM; in [6], 161 nM; in experiment [7] (setting [11]), 110 nM; in experiment [7] (setting [12]), 11 nM; in experiment [7] (setting [13]), 11 nM. Besides, the EC50 in [8] (setting [14]) was 11.5 nM; in experiment [8] (setting [15]) it was 41 nM; in experiment [8] (setting [16]), 11.5 nM; in experiment [8] (setting [17]), 11.5 nM; in experiment [9] it was 21 nM. Moreover, in experiment [2], the “C316Y/1a Fold Resistance” value is listed as 8 fold. The IC50 in experiment [3] was determined as 59 nM; in experiment [4], 7 nM; in experiment [10], 42 nM.
Turning to `CC(C)CCN(c1cc2oc(-c3ccc(F)cc3)c(C3=NOCC(=O)N3)c2cc1C1CC1)S(C)(=O)=O` [Example 162, N-[5-cyclopropyl-2-(4-fluorophenyl)-3-(5-oxo-5,6-dihydro-4H-1,2,4-oxadiazin-3-yl)-1-benzofuran-6-yl]-N-(3-methylbutyl)methanesulfonamide], the EC50 in experiment [1] is 1000 nM; in experiment [5], 1000 nM; in [6], over 1000 nM; in experiment [7] (setting [11]), 9710 nM; in experiment [7] (setting [12]), 327 nM; in experiment [7] (setting [13]), 327 nM. The EC50 in experiment [8] (setting [14]) stood at 248 nM; in experiment [8] (setting [15]), 10000 nM; in experiment [8] (setting [16]), 248 nM; in experiment [8] (setting [17]), 248 nM; in experiment [9], 1000 nM. Also, the “C316Y/1a Fold Resistance” value in experiment [2] came out at 34 fold. Also, the results for the IC50 in [3], in [4] and in experiment [10] were 1200 nM, 35.7 nM and 711 nM, respectively.
On to `CS(=O)(=O)N(CCC/C(N)=N/O)c1cc2oc(-c3ccc(F)cc3)c(-c3ncc[nH]3)c2cc1C1CC1` [Example 176, (1Z)-4-{[5-cyclopropyl-2-(4-fluorophenyl)-3-(1H-imidazol-2-yl)-1-benzofuran-6-yl](methylsulfonyl)amino}-N′-hydroxybutanimidamide], for which the half-maximal effective concentration (EC50) in [1] is 146 nM; in [5], 155 nM; in experiment [6] it was 159 nM; in [7] (setting [11]), 80 nM; in experiment [7] (setting [12]), 20 nM; in [7] (setting [13]), 20 nM. Moreover, the EC50 stood at 36.5 nM in experiment [8] (setting [14]); 133 nM in experiment [8] (setting [15]); 36.5 nM in experiment [8] (setting [16]); 36.5 nM in [8] (setting [17]); 12 nM in experiment [9]. For the same compound, the “C316Y/1a Fold Resistance” value in [2] amounted to 27 fold. Further, the figures for the IC50 in experiment [3], in [4] and in [10] were 134 nM, 5 nM and 33 nM, respectively.
As for `CC(C)(O)CCN(c1cc2oc(-c3ccc(F)cc3)c(C3=NOCCN3)c2cc1C1CC1)S(C)(=O)=O` [Example 125, N-[5-cyclopropyl-3-(5,6-dihydro-4H-1,2,4-oxadiazin-3-yl)-2-(4-fluorophenyl)-1-benzofuran-6-yl]-N-(3-hydroxy-3-methylbutyl)methanesulfonamide], the EC50 in [1] came to 222 nM; in experiment [5] it was 182 nM; in [6], 85 nM; in experiment [7] (setting [11]), 347 nM; in experiment [7] (setting [12]), 20 nM; in experiment [7] (setting [13]) it was 20 nM. The EC50 in experiment [8] (setting [14]) came out at 12.6 nM; in [8] (setting [15]) it was 156 nM; in [8] (setting [16]), 12.6 nM; in experiment [8] (setting [17]) it was 12.6 nM; in experiment [9] it was 50 nM. The “C316Y/1a Fold Resistance” value in [2] worked out at 10 fold. The IC50 in experiment [3] turned out to be 112 nM; in [4], 11 nM; in [10], 60 nM.
With `C[S+]([O-])CCCN(c1cc2oc(-c3ccc(F)cc3)c(C3=NOCCN3)c2cc1C1CC1)S(C)(=O)=O` (stereo not drawn) [Example 139, N-[5-cyclopropyl-3-(5,6-dihydro-4H-1,2,4-oxadiazin-3-yl)-2-(4-fluorophenyl)-1-benzofuran-6-yl]-N-[3-(methylsulfinyl)propyl]methanesulfonamide], the EC50 in experiment [1] is 1000 nM; in experiment [5], 787 nM; in [6], 572 nM; in [7] (setting [11]), 948 nM; in [7] (setting [12]), 68 nM; in [7] (setting [13]), 68 nM. Moreover, the EC50 amounted to 59.2 nM in experiment [8] (setting [14]); 648 nM in [8] (setting [15]); 59.2 nM in experiment [8] (setting [16]); 59.2 nM in experiment [8] (setting [17]); 102 nM in experiment [9]. Moreover, the “C316Y/1a Fold Resistance” value in experiment [2] is recorded as 11 fold. For the same compound, the figures for the IC50 in [3], in experiment [4] and in experiment [10] were 89 nM, 7.7 nM and 9 nM, respectively.
